According to patent EP4707280A1, “1,4-CINEOLE DERIVATIVE AND INTERMEDIATE THEREOF, HERBICIDE CONTAINING SAID DERIVATIVE AS ACTIVE INGREDIENT, METHOD FOR USING HERBICIDE, AND METHOD FOR PREPARING AGROCHEMICAL COMPOSITION” (HOKKO CHEMICAL INDUSTRY CO., LTD., priority 2023, dated 2024):

Legend:
Format in all cases: in vivo
[1] = tested on: Echinochloa crus-galli var. formosensis; experiment: Test Example 2: herbicidal effect test by application during growth period of paddy rice; conditions: Echinochloa crus-galli; 120 g per 10 ares; applied seven days after sowing, flooded pots; 14 days after application; read-out: weed inhibition rate
Procedure, shortened: (§1)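 Steps: puddle fertilized paddy soil; sow 30 seeds of each weed at 0–1 cm; flood to roughly 3 cm and keep in a glasshouse; at day 7 drop in diluted emulsifiable concentrate (120 g a.i. per 10 ares); score inhibition (%) 14 days later, two replicates.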

[2] = tested on: Monochoria vaginalis; experiment: as above; conditions: Pontederia vaginalis; 120 g per 10 ares; applied seven days after sowing, flooded pots; 14 days after application; read-out: weed inhibition rate
Procedure, shortened: as §1

[3] = tested on: Scirpus juncoides; experiment: as above; conditions: Schoenoplectiella juncoides; 120 g per 10 ares; applied seven days after sowing, flooded pots; 14 days after application; read-out: weed inhibition rate
Procedure, shortened: as §1

[4] = tested on: Digitaria ciliaris; experiment: Test Example 4: herbicidal effect test by stem and leaf treatment in upland field; conditions: Digitaria ciliaris; 120 g per 10 ares; sprayed seven days after sowing, upland soil; 14 days after application; read-out: weed inhibition rate
[5] = tested on: Echinochloa crus-galli var. formosensis; experiment: Test Example 6: herbicidal effect test by application during growth period of paddy rice (low dose); conditions: Echinochloa crus-galli; 7.5 g per 10 ares; applied seven days after sowing, flooded pots; 14 days after application; read-out: weed inhibition rate
Procedure, shortened: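 Puddled, fertilised paddy soil was sown with 30 seeds per species and flooded to about 3 cm. After 7 days in a glass greenhouse, the diluted emulsifiable concentrate went into the water by dropper at 7.5 g/10 a. Effect scored at 14 days.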

[6] = tested on: Echinochloa crus-galli; experiment: Test Example 8: herbicidal effect test by stem and leaf treatment in upland field (low dose); conditions: Echinochloa crus-galli; 7.5 g per 10 ares; sprayed seven days after sowing, upland soil; 14 days after application; read-out: weed inhibition rate
[7] = tested on: Digitaria ciliaris; experiment: as above; conditions: Digitaria ciliaris; 7.5 g per 10 ares; sprayed seven days after sowing, upland soil; 14 days after application; read-out: weed inhibition rate
[8] = tested on: Echinochloa crus-galli; experiment: Test Example 7: herbicidal effect test by soil application in upland field (low dose); conditions: Echinochloa crus-galli, 7.5 g per 10 ares, sprayed one day after sowing, 14 days after application, read-out: weed inhibition rate
Procedure, shortened: (§2)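 Upland soil (alluvial loam) pots, seeds mixed into top 1 cm layer → EC formulation diluted with water, sprayed onto soil 1 d post-sowing, 100 L/10 a → 7.5 g a.i./10 a → inhibition (%) scored at 14 d, n=2.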

[9] = tested on: Digitaria ciliaris; experiment: as above; conditions: Digitaria ciliaris, 7.5 g per 10 ares, sprayed one day after sowing, 14 days after application, read-out: weed inhibition rate
Procedure, shortened: as §2

[10] = tested on: Echinochloa crus-galli; experiment: Test Example 3: herbicidal effect test by soil application in upland field; conditions: Echinochloa crus-galli, 120 g per 10 ares, sprayed one day after sowing, 14 days after application, read-out: weed inhibition rate
Procedure, shortened: (§3)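 Weed inhibition (%) was assessed 14 days after treatment, in duplicate per concentration group. Seeds had been mixed into the upper 1 cm of upland alluvial loam, and the soil surface was sprayed one day later with the diluted emulsifiable concentrate at 120 g active ingredient per 10 ares.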

[11] = tested on: Digitaria ciliaris; experiment: as above; conditions: Digitaria ciliaris, 120 g per 10 ares, sprayed one day after sowing, 14 days after application, read-out: weed inhibition rate
Procedure, shortened: as §3

Cc1ccccc1CO[C@@H]1C[C@]2(C(C)C)O[C@@]1(C)CC2=O [2-3, (1R,4S,5R)-1-isopropyl-4-methyl-5-((2-methylbenzyl)oxy)-7-oxabicyclo[2.2.1]heptan-2-one]
≥ 80%: inhibition at 1200 g/ha [1] | inhibition at 1200 g/ha [2] | inhibition at 1200 g/ha [3] | inhibition at 1200 g/ha [4] | inhibition at 75 g/ha [5] | inhibition at 75 g/ha [6] | inhibition at 75 g/ha [7] | inhibition at 75 g/ha [8] | inhibition at 75 g/ha [9] | inhibition at 1200 g/ha [10] | inhibition at 1200 g/ha [11]

CC(C)[C@]12C[C@@H](OCc3ccccc3F)[C@](C)(C[C@@H]1Br)O2 [1-19, (1S,2R,4R,5S)-5-bromo-2-[(2-fluorophenyl)methoxy]-1-methyl-4-isopropyl-7-oxabicyclo[2.2.1]heptane]
≥ 80%: inhibition at 1200 g/ha [1] | inhibition at 1200 g/ha [2] | inhibition at 1200 g/ha [3] | inhibition at 1200 g/ha [4] | inhibition at 75 g/ha [5] | inhibition at 75 g/ha [6] | inhibition at 75 g/ha [7] | inhibition at 75 g/ha [8] | inhibition at 75 g/ha [9] | inhibition at 1200 g/ha [10] | inhibition at 1200 g/ha [11]

CC(C)[C@]12C[C@@H](OCc3ccccc3Cl)[C@](C)(CC1=O)O2 [2-11, (1R,4S,5R)-5-((2-chlorobenzyl)oxy)-1-isopropyl-4-methyl-7-oxabicyclo[2.2.1]heptan-2-one]
≥ 80%: inhibition at 1200 g/ha [1] | inhibition at 1200 g/ha [2] | inhibition at 1200 g/ha [3] | inhibition at 1200 g/ha [4] | inhibition at 75 g/ha [5] | inhibition at 75 g/ha [6] | inhibition at 75 g/ha [7] | inhibition at 75 g/ha [8] | inhibition at 75 g/ha [9] | inhibition at 1200 g/ha [10] | inhibition at 1200 g/ha [11]

Cc1ccccc1CO[C@@H]1C[C@]2(C(C)C)O[C@@]1(C)CC2C (stereo partly drawn) [1-83, (1S,2R,4R)-4-isopropyl-1,5-dimethyl-2-((2-methylbenzyl)oxy)-7-oxabicyclo[2.2.1]heptane]
≥ 80%: inhibition at 1200 g/ha [1] | inhibition at 1200 g/ha [2] | inhibition at 1200 g/ha [3] | inhibition at 1200 g/ha [4] | inhibition at 75 g/ha [5] | inhibition at 75 g/ha [6] | inhibition at 75 g/ha [7] | inhibition at 75 g/ha [8] | inhibition at 75 g/ha [9] | inhibition at 1200 g/ha [10] | inhibition at 1200 g/ha [11]

Cc1cccc(F)c1CO[C@@H]1C[C@]2(C(C)C)O[C@@]1(C)CC2=O [2-353, (1R,4S,5R)-5-((2-fluoro-6-methylbenzyl)oxy)-1-isopropyl-4-methyl-7-oxabicyclo[2.2.1]heptan-2-one]
≥ 80%: inhibition at 1200 g/ha [1] | inhibition at 1200 g/ha [2] | inhibition at 1200 g/ha [3] | inhibition at 1200 g/ha [4] | inhibition at 75 g/ha [5] | inhibition at 75 g/ha [6] | inhibition at 75 g/ha [7] | inhibition at 75 g/ha [8] | inhibition at 75 g/ha [9] | inhibition at 1200 g/ha [10] | inhibition at 1200 g/ha [11]

CC(C)[C@]12C[C@@H](OCc3c(F)cccc3F)[C@](C)(C[C@@H]1F)O2 [1-7, (1S,2R,4R,5S)-2-((2,6-difluorobenzyl)oxy)-5-fluoro-4-isopropyl-1-methyl-7-oxabicyclo[2.2.1]heptane]
≥ 80%: inhibition at 1200 g/ha [1] | inhibition at 1200 g/ha [2] | inhibition at 1200 g/ha [3] | inhibition at 1200 g/ha [4] | inhibition at 75 g/ha [5] | inhibition at 75 g/ha [6] | inhibition at 75 g/ha [7] | inhibition at 75 g/ha [8] | inhibition at 75 g/ha [9] | inhibition at 1200 g/ha [10] | inhibition at 1200 g/ha [11]

CC(C)[C@]12C[C@@H](OCc3ccccc3Cl)[C@](C)(C[C@@H]1Br)O2 [1-20, (1S,2R,4R,5S)-5-bromo-2-[(2-chlorophenyl)methoxy]-1-methyl-4-isopropyl-7-oxabicyclo[2.2.1]heptane]
≥ 80%: inhibition at 1200 g/ha [1] | inhibition at 1200 g/ha [2] | inhibition at 1200 g/ha [3] | inhibition at 1200 g/ha [4] | inhibition at 75 g/ha [5] | inhibition at 75 g/ha [6] | inhibition at 75 g/ha [7] | inhibition at 75 g/ha [8] | inhibition at 75 g/ha [9] | inhibition at 1200 g/ha [10] | inhibition at 1200 g/ha [11]

CC(C)[C@]12C[C@@H](OCc3ccccc3F)[C@](C)(C[C@@H]1O)O2 [1-30, (1R,2S,4S,5R)-5-((2-fluorobenzyl)oxy)-1-isopropyl-4-methyl-7-oxabicyclo[2.2.1]heptan-2-ol]
≥ 80%: inhibition at 1200 g/ha [1] | inhibition at 1200 g/ha [2] | inhibition at 1200 g/ha [3] | inhibition at 1200 g/ha [4] | inhibition at 75 g/ha [5] | inhibition at 75 g/ha [6] | inhibition at 75 g/ha [7] | inhibition at 75 g/ha [8] | inhibition at 75 g/ha [9] | inhibition at 1200 g/ha [10] | inhibition at 1200 g/ha [11]

CC(C)[C@]12C[C@@H](OCc3ccccc3F)[C@](C)(C[C@@H]1OCC1CC1)O2 [1-1603, (1S,2R,4R,5S)-5-(cyclopropylmethoxy)-2-[(2-fluorophenyl)methoxy]-1-methyl-4-isopropyl-7-oxabicyclo[2.2.1]heptane]
≥ 80%: inhibition at 1200 g/ha [1] | inhibition at 1200 g/ha [2] | inhibition at 1200 g/ha [3] | inhibition at 1200 g/ha [4] | inhibition at 75 g/ha [5] | inhibition at 75 g/ha [6] | inhibition at 75 g/ha [7] | inhibition at 75 g/ha [8] | inhibition at 75 g/ha [9] | inhibition at 1200 g/ha [10] | inhibition at 1200 g/ha [11]

CC(C)[C@]12C[C@@H](OCc3c(F)cccc3Cl)[C@](C)(CC1=O)O2 [2-28, (1R,4S,5R)-5-((2-chloro-6-fluorobenzyl)oxy)-1-isopropyl-4-methyl-7-oxabicyclo[2.2.1]heptan-2-one]
≥ 80%: inhibition at 1200 g/ha [1] | inhibition at 1200 g/ha [2] | inhibition at 1200 g/ha [3] | inhibition at 1200 g/ha [4] | inhibition at 75 g/ha [5] | inhibition at 75 g/ha [6] | inhibition at 75 g/ha [7] | inhibition at 75 g/ha [8] | inhibition at 75 g/ha [9] | inhibition at 1200 g/ha [10] | inhibition at 1200 g/ha [11]

CC(C)[C@]12C[C@@H](OCc3cc(F)ccc3F)[C@](C)(CC1=O)O2 [2-18, (1R,4S,5R)-5-((2,5-difluorobenzyl)oxy)-1-isopropyl-4-methyl-7-oxabicyclo[2.2.1]heptan-2-one]
≥ 80%: inhibition at 1200 g/ha [1] | inhibition at 1200 g/ha [2] | inhibition at 1200 g/ha [3] | inhibition at 1200 g/ha [4] | inhibition at 75 g/ha [5] | inhibition at 75 g/ha [6] | inhibition at 75 g/ha [7] | inhibition at 75 g/ha [8] | inhibition at 75 g/ha [9] | inhibition at 1200 g/ha [10] | inhibition at 1200 g/ha [11]
